For 2 compounds, Activity results are on record in ChEMBL document CHEMBL1121530, “Potential carcinostatics. 4. Synthesis and biological properties of erythro- and threo-beta-fluoroaspartic acid and erythro-beta-fluoroasparagine” (J Med Chem, 1980).

Each structure is given as a SMILES string. Active and inactive are the calls of the source. The rule behind the calls is not given here.

In assay [1] the test system is L5178Y. The experiment in a line: Tested in vivo for antileukemic activity in the asparagine dependent L5178Y lymphatic leukemia cells in mice up to intraperitoneal doses 100 mg/kg; NA = no antitumor activity. In kind it is functional, organism-based. On the set-up: dose 100 mg/kg. Conditions: Mus musculus.
The subject of assay [2] is L5178Y. As to the kind of experiment: Tested in vivo for antileukemic activity in the asparagine dependent L5178Y lymphatic leukemia cells in mice up to intraperitoneal doses 40 mg/kg; NA = no antitumor activity. In kind it is functional, organism-based. On the set-up: dose 40 mg/kg. Conditions: Mus musculus.

With `NC(=O)C(F)C(N)C(=O)O` (configuration not stated), the result in the assay with L5178Y [1] was inactive.

Take `NC(C(=O)O)C(F)C(=O)O` (configuration not stated): the result in the assay on L5178Y [2] was inactive.
